According to patent US20150330990A1, “METHOD OF SCREENING CANDIDATE BIOCHEMICAL ENTITIES TARGETING A TARGET BIOCHEMICAL ENTITY” (BIODESY, INC., priority 2013, published 2015):
“And” between values parts separate entries of the source, which are not always exact repeats. Equal entries are not always repeated.

How the values were obtained:
alpha-synuclein [1] = molecular target: T1, alpha-synuclein (Homo sapiens, UniProt P37840, A90C); details: 1 mM Dopamine, 50 mM Hepes pH 7.4, 100 mM NaCl
Method: An alanine to cysteine mutation (A90C) was introduced into alpha-synuclein to produce a site-specific peptide for dye conjugation, as native alpha-synuclein lacks cysteine residues. A90C alpha-synuclein was then labeled with PyMPO-Maleimide using standard techniques and the location of the modified peptide was verified by mass spectroscopy to be cysteine 90.
For SHG experiments performed with alpha-synuclein, a stock solution of PyMPO-Maleimide-labeled A90C alpha-synuclein was diluted to a final concentration of 5 μM in 50 mM Hepes, pH 7.4, 100 mM NaCl. The 5 μM protein solution was then immobilized onto an aldehyde derivatized glass slide by incubating for one hour at room temperature. Control (buffer) and compound injections were performed in 50 mM Hepes, pH 7.4, 100 mM NaCl.
The experiments were performed with an instrument comprising a mode-locked Ti:sapphire oscillator which provides the fundamental beam necessary to generate the second-harmonic signal (high peak power intensity). We used a Mira 900 Ti:Sapphire ultrafast oscillator (Coherent Inc.) pumped by a Millenia V DPSS laser (Spectra-Physics Corp.). The Ti:sapphire oscillator produced ˜0.7 W of fundamental power at 780 nm with pulse duration of ˜150 fs at 80 MHz. […]

Raf kinase = experiment: SHG signature on Raf kinase surface array (Example 4); assay type: binding; details: positive direction
Method: A library comprising 200 distinct compounds and Sorafenib, each with a molecular weight between 400 and 500 g/mol, three aromatic groups, and 2-5 nitrogen atoms, is evaluated for the structure-activity relationship using a surface array comprising more than 200 copies of a Raf kinase. The conformation state of the Raf kinase is measured by […] (SHG) methods described in the present application to establish a baseline in the absence of any compound. Each compound in the library is then contacted with a single copy of the Raf kinase on the array. The conformational state of each copy of the single kinase target is measured by SHG methods. The SHG signature for each compound is determined based on the change in conformational state upon contacting the Raf kinase. Sorafenib has a SHG signature with a 30% shift (i.e. magnitude) in the positive direction. The compounds are grouped, based on their SHG signature and common structural parameters, to generate a structure-activity relationship (SAR) catalog. For example, the 8 compounds that have a signature within 10% in magnitude to that of Sorafenib are cataloged as “molecular weight between 400 and 500 g/mol, three aromatic groups, 2-5 nitrogen atoms, and a signature with +27% to +33% magnitude”. […]

alpha-synuclein [2] = molecular target: T1, alpha-synuclein; experiment: SHG conformational change assay, compound added alone; assay type: binding; design: made in house; details: for EC50: 5 μM alpha-synuclein, GraphPad non-linear fit, read-out: EC50 (SHG dose-response curve; binding affinity)
Excerpt: A single-site cysteine mutant […]) of the alpha-synuclein was constructed and labeled with PyMPO-maleimide (Invitrogen), an SH-active probe that we have used in previous studies ([…], Journal of Chemical Physics 125(7), 2006; […], Physical Chemistry Chemical Physics 9(42):5704-5711, 2007). Mutant […]) protein was previously determined to function like wild-type (Bertoncini C W, et al., Proceedings of the National Academy of Sciences of the United States of America 102(5):1430-1435, 2005). The label was coupled to the protein according to the manufacturer's instructions and purified by gel filtration. Artemis SHG Screening Instrumentation: The Artemis instrument is comprised of a mode-locked Ti:sapphire oscillator that provides the fundamental beam necessary to generate second-harmonic light (high peak power intensity). […] Each of the 16 wells is read in sequence by translating the stage via the control software. Artemis was outfitted with a single-channel liquid injector (Cavro) which delivered a liquid bolus. The liquid bolus volume and delivery speed could be varied. In the experiments described here, we used a volume of 10 μl delivered in 1 second. The measured parameters include the read time before and after ligand injection, integration time, stage temperature (kept at room temperature for all experiments here), and the stage position, relative to the line of the fundamental beam. A custom silicone template with adhesive backing (Arrowleaf Research) was applied to commercially available Xenobind glass microscope slides (Xenopore) using a custom machined assembly jig to define 16 wells of diameter 3 mm (volume 15 μl) on each slide. The template defining the wells is registered to a standard 96-well plate. […] After allowing the protein to absorb, the slide was placed on the […] platform and each well was scanned via SHG to determine the amount of protein in each well. Unbound protein was then removed by washing five times with 20 μL PBS. A post-wash well scan was then performed to determine how much protein was bound to the slide surface. To determine the dose-response curves of Spermine (Sigma), Spermidine (Sigma), and COMPOUND A, serial dilutions of each compound were used to prepare stock solutions. Each compound was added to a well to produce the indicated final concentration. […] For COMPOUND A the concentration range was 5 μ[…], and 1 mM. The concentrations were then converted to the log scale and the data plotted in GraphPad Prism V5 using the non-linear regression fit for log(agonist) vs response with variable slope. […] The EC50 values were calculated by the software. Control experiments were performed on each compound to empirically determine the time frame required for each compound to produce a maximal response (Tmax). […] The resulting value was reported as the percent change in SHG intensity due to compound addition.

alpha-synuclein [3] = molecular target: T1, alpha-synuclein; experiment: SHG competition assays (spermine-spermidine, spermine-COMPOUND A, analog-spermine, library screen); assay type: binding; design: made in house; details: 3 mM Spermidine added after 25 minutes incubation with 1 mM Spermine
Method: The Maybridge Ro3 fragment library contains over 1,000 pharmacophoric compounds of 95% purity solubilized at 50 mM in DMSO. For fragment screening experiments, a single compound from the library was diluted in PBS and placed in each well at a final concentration of 1 mM ([…]).
After 25 minutes, 3 mM spermidine was added to each well and the resulting change in SHG intensity was measured.
To calculate the percent change, the SHG intensity as measured just prior to injection (T0) was subtracted from the SHG intensity at Tmax and then divided by T0 according to the following equation: SHG %=(ISHG@Tmax−ISHG@T0)/ISHG@T0.
A control buffer injection was used to determine the threshold for SHG intensity change and was calculated in a similar manner to above. The net SHG intensity change for each compound was then reported by subtracting the buffer threshold value from the SHG intensity value produced by compound addition. The resulting value was reported as the percent change in SHG intensity due to compound addition.
Each well was loaded with 5 μM alpha-synuclein and pre-incubated with one fragment compound from the Maybridge Ro3 library for 30 minutes at 1 mM in assay buffer. […] As shown in FIG. 2C (right trace), addition of 1 mM COMPOUND A to alpha-synuclein changes the SHG baseline signal immediately.

alpha-synuclein [4] = molecular target: T2, alpha-synuclein (Homo sapiens, UniProt P37840); experiment: Thioflavin T assay / fibrillization of alpha-synuclein in vitro; assay type: biochemical
alpha-synuclein [5] = molecular target: T2, alpha-synuclein; details: cited from earlier work

## NCCc1ccc(O)c(O)c1 [Dopamine]
alpha-synuclein [1]
  average percent change in the SHG intensity of alpha-synuclein: 3.375±1.13%

## CNC(=O)c1cc(Oc2ccc(NC(=O)Nc3ccc(Cl)c(C(F)(F)F)c3)cc2)ccn1 [Sorafenib]
Raf kinase
  SHG signature shift (magnitude): 30%

## NCCCCNCCCN [Spermidine]
alpha-synuclein [2]
  EC50: 1110 µM
alpha-synuclein [2]; 3 mM compound added alone
  increase in SHG intensity: 19.88±2.37%
alpha-synuclein [2]; SHG dose-response curve
  logEC50: −2.95±0.19
alpha-synuclein [3]
  change in SHG intensity: 5.1±0.81%

## NCCCNCCCCNCCCN [Spermine]
alpha-synuclein [4]
  increase of the rate of aggregation of alpha-synuclein in vitro: roughly two-fold
alpha-synuclein [5]
  factor of increase of aggregation rate in vitro: 10^5
alpha-synuclein [2]
  EC50: 840 µM and 790 µM
alpha-synuclein [2]; 1 mM
  Compound Only (% Shift/% Change): 30.23 ± 3.69%
alpha-synuclein [2]; 1 mM compound added alone to 5 μM alpha-synuclein
  change in SHG intensity: 25.58±4.33% and 30.23±3.69%
alpha-synuclein [2]; 5 mM compound added alone to 5 μM alpha-synuclein
  change in the SHG intensity: 36.26±4.97% and 37.44±6.40%

## Phthalocyanine Tetrasulfonate [PcTs]
alpha-synuclein [2]; treatment with 10 μM PcTS
  change in the SHG intensity of alpha-synuclein: −79.6±2.7%
